According to US20040171089A1, “High-throughput screening assay for identifying substances capable of modulating cell survival and/or proliferation” (priority 2001, published 2004):

How the values were obtained:
phospholipase C [1] = assay: GFP-PH PLCdelta 1 relocalisation (PLC activation) in MDA MB 468 cells; type: cell-based, human
Description: The inventors introduced a recombinant plasmid vector encoding a hybrid protein comprised of the pleckstrin homology (PH) domain of phospholipase C (PLC) delta 1 fused green fluorescent protein (GFP) (GFP-PH PLCdelta 1) into MDA MB 468 mammary carcinoma cells. A standard transfection method (Fugene-6—Roche) was used. […] Cells were maintained in DMEM with 10% fetal bovine serum at 37 deg C. in 5% CO2 before and during exposure to sigma ligands which were present at a range of concentrations. Effects on the GFP-PH PLCdelta 1 protein were studied in two ways: by time lapse microscopy (using a Leica inverted fluorescence microscope and a Hammamatsu Orca charge-coupled device camera, linked to an Improvision Open Lab image processing workstation). This enabled the time course of effects to be determined. […] Control cell populations received drug vehicle alone and were analysed at the same time points.
GFP-PH PLC delta 1—expressing MDA MB 468 cells were exposed to sigma antagonists in 1 mM and 0 mM (nominally calcium-free) buffer (as used for the calcium imaging experiments, described above) and monitored by time lapse imaging as above.

[2] = test system: human primary microvascular endothelial cells; assay: Fura-2 calcium imaging, microvascular endothelial cells; type: cell-based
Description: Human adult dermal microvascular endothelial cells (catalogue number CC-2543; cells had been characterised by tests for cell type markers: positive for acetylated LDL uptake, positive for factor VIII related antigen, negative for alpha smooth muscle actin)
(§1) For calcium imaging experiments cells were plated onto poly-L-lysine coated coverslips (13 mm). Single cell imaging was performed utilizing a MiraCal Imaging facility (Life Science Resources, Cambridge, U.K.) with a Nikon Diaphot-TMD inverted epifluorescence microscope equipped with a ×40 oil immersion objective and Sutter filter wheel. The imager was equipped with a Lambert intensifier 1187 (Life Sciences Resources) providing a ×30 enhancement of the fluorescent signal, thus limiting phototoxicity.
(§2) Fura-2 acetoxymethyl ester (fura-2 AM) incubations with the cells were performed at 37° C. in a medium containing (in mM): 120 NaCl, 3.5 KCl, 0.4 KH2PO4, 5 NaHCO3, 1.2 Na2SO4, 15 glucose, 1.2 MgCl2, 1 CaCl2, and 20 TES [N-tris(hydroxymethyl) methyl-2-aminoethane sulphonic acid] pH adjusted to 7.4 with NaOH. Typically cells were incubated in 3 μM fura-2 AM for 25 min., which permitted sufficient accumulation of free fura-2 in the cell cytoplasm. Cells were then illuminated alternately at 340 and 380 nm with the emitted 505 nm light being detected by a photomultiplier. Free fura emits maximally when excited at 380 nm, whilst the calcium bound fura has a maximal emission when excited at 340 nm. Thus the ratio of emission when alternately excited at 340/380 nm is a measure of the calcium concentration in equilibrium with the chelator. Changes of intracellular calcium were quantified as the percentage increase of the fluorescent ratio (determined at ˜505 nm) obtained by exciting the test cells alternatively at 340 nm (optimal for calcium bound dye) and 380 nm.

MDA MB 468 cells = assay: MTS cell viability/proliferation assay, MDA MB 468 cells; type: cell-based, human; details: 15 minute exposure then drug-free medium; at 48 hours; MTS
Description: (§3) This was carried out using an MTS assay (reagents from Promega Corporation, Madison Wis., USA) which is a modification of the MTT assay (as described in Jacobson et al, 1994 EMBO J Vol 13 pp1899-1910). The assay depends on conversion of the MTS tetrazolium compound to a coloured formazan product in metabolically active cells; it is therefore an assay of viable cell number. A decline in values implies cell killing as long as cell disappearance by apoptosis in untreated cell populations is absent or negligible (as with most healthy primary cell populations).
(§4) Cells were seeded in the range 1.5×10^5-1.8×10^5 cells per ml of culture medium in 96 well microtitre plates and allowed to attach in a humidifed atmosphere of 5% CO2 in air at 37 deg C. Drugs were added 18-24 hours later and cell viability/proliferation measured at time intervals up to 48-72 hours post-drug addition when the experiment was terminated. Mean (±SE) values at each time point were obtained from wells in triplicate.
(§5) Cell viability was measured as follows: 20 μl of MTS solution (Promega) was added to wells and incubated at 37 deg C. for 3 hours during which time a coloured formazan product is generated in viable cells. […] Viable cell number was then measured by reading absorbance at 490 nm in a Dynex microtitre plate reader. […]

phospholipase C [3] = assay: Quantitative HPLC assay of inositol phosphates (IP3 levels) in MDA MB 468 cells; type: cell-based, human; details: [3H] inositol labelled cells
Excerpt: The PH domain of PLC delta 1 has a higher affinity for the phosphoinositide IP3 compared to PIP2. IP3 is produced from PIP2 in response to activation of PLC. Since PIP2 is membrane-bound whereas IP3 is cytosolic, the activation of PLC can be visualised in living cells by the relocalisation of GFP-PH PLC delta 1 from membrane to cytosol. A proviso to this interpretation is that, in conditions where PIP2 levels decline relative to IP3, the net effect would be relocalisation of GFP-PH PLC delta 1 from membrane to cytosol. Thus, to exclude this possibility, quantitative phospholipid assays were performed. (In this analysis, cells were labelled with [^3H] inositol in inositol-free DMEM (In Vitrogen—Gibco) with dialysed FBS for 48 hours before exposure to sigma ligands. Cells were then lysed and subjected to quantitative HPLC assay). These assays confirmed that IP3 levels had risen in cells exposed to sigma antagonists (IP3 levels had risen to 240% and 166% of the level prior to provision of the test substance in response to IPAG and rimcazole respectively) but had not risen in cells exposed to sigma-1 or sigma-2 agonists. This confirmed activation of PLC by sigma antagonists.

mammary epithelial cells = assay: MTS cell viability/proliferation assay, mammary epithelial cells; type: cell-based, human; details: 1-10 μM
Description: Human mammary epithelial cells (catalogue number CC-2551; stain positive for cytokeratins 14, 18 and 19)
as §3
as §4, with “Mean (±SE) values at each time point were obtained from wells in triplicate.” left out
as §5

[4] = test system: human prostate epithelial cells; assay: Fura-2 calcium imaging, prostate epithelial cells; type: cell-based
Description: Human prostate epithelial cells (catalogue number CC-2555; stain positive for cytokeratin 8,13.)
as §1
as §2, with “Free fura emits maximally when excited at 380 nm, whilst the calcium bound fura has a maximal emission when excited at 340 nm. Thus the ratio of emission when alternately excited at 340/380 nm is a measure of the calcium concentration in equilibrium with the chelator.” left out

MCF-7 cells = assay: Fura-2 calcium imaging, MCF-7 cells; type: cell-based, human; details: 10 μM
Description: as §1
as §2, with “Free fura emits maximally when excited at 380 nm, whilst the calcium bound fura has a maximal emission when excited at 340 nm. Thus the ratio of emission when alternately excited at 340/380 nm is a measure of the calcium concentration in equilibrium with the chelator.” left out

[5] = 1-10 μM, microvascular endothelial cells

N=C(Nc1ccc(I)cc1)NC1C2CC3CC(C2)CC1C3 (centres unmarked) [IPAG, 1-(4-iodophenyl)-3-(2-adamantyl)guanidine]
relocalisation of GFP-PH PLC delta 1 from membrane to cytosol (phospholipase C [1]; 100 μM, approximately 10 minutes, DMEM with 10% fetal bovine serum): pronounced relocalisation | localisation of GFP-PH PLC delta 1 (phospholipase C [1]; nominally calcium-free buffer (0 mM calcium)): remained membrane-localised | % increase of cytosolic calcium (peak 340/380 nm fura-2 ratio) ([2]; 1 μM, microvascular endothelial cells): 119±13% | initial calcium rise above baseline, occurring within 1 minute ([2]; 10 μM, 1 mM, 0.1 mM and nominally calcium free medium): > 100% | % increase of cytosolic calcium (peak 340/380 nm fura-2 ratio) ([2]; 10 μM, microvascular endothelial cells): 293±14% | time to evident increase of cytosolic calcium after drug application [2, 5]: 5 to 10 s | time to peak effect on cytosolic calcium [2, 5]: ≤ 3 min | viable cell number less than control values (MDA MB 468 cells): 20-30% | IP3 levels, % of the level prior to provision of the test substance (phospholipase C [3]): 240% | Cytotoxicity (mammary epithelial cells): not cytotoxic | % increase of cytosolic calcium (peak 340/380 nm fura-2 ratio) ([4]; 1 μM): 10±5% | % increase of cytosolic calcium (peak 340/380 nm fura-2 ratio) ([4]; 10 μM): 25±5% | time by which calcium levels have returned to baseline (MCF-7 cells): ≤ 30 min | time to peak effect on cytosolic calcium (MCF-7 cells): ≤ 5 min
